# Results: patent US20230183219A1, “CONDENSED SUBSTITUTED HYDROPYRROLES AS ANTAGONISTS OF THE MUSCARINIC ACETYLCHOLINE RECEPTOR M4” (Vanderbilt University, priority 2020, published 2023)
# Molecular target: T1, Human M4 (Homo sapiens, UniProt P08173)
# T1 construct: Human or rat M4 cDNA, along with the chimeric G protein Gqi5, were transfected into Chinese hamster ovary (CHO-K1) cells; expressed in transfected cells; host or cells: CHO-K1 (Chinese hamster ovary, ATCC), stably co-expressing Gqi5
# T1 sequence (P08173 1-479): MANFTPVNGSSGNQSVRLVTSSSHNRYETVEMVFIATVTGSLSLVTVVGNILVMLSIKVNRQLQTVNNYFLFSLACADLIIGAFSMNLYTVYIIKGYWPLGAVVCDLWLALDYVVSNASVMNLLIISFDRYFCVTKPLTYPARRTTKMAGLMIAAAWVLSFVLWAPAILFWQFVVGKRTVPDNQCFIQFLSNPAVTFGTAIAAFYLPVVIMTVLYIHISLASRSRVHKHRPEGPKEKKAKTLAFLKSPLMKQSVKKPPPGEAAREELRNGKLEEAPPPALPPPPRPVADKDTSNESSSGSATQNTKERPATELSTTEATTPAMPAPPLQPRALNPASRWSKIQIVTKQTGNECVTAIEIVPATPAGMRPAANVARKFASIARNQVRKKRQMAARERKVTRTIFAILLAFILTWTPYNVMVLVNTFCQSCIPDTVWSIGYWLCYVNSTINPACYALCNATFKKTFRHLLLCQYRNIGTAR
# Assay: mAChR M4 cell-based functional assay (calcium flux, decrease of EC80 acetylcholine response)
# Conditions: for remaining activity at 30 µM / Human M4 Emin: % ACh maximum at 30 μM; for remaining activity at 30 µM: read-out: Human M4 Emin; for IC50: M4/Gqi5/CHO-K1 cells, decrease of response to EC80 acetylcholine
# Outline: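 IC50 reflects inhibition of an EC80 acetylcholine calcium response, fitted by four-parameter logistic equation. Fluo-4-loaded M4/Gqi5 CHO-K1 cells received compound (10-point, 1:3 series) 2 s into the FDSS read, then EC20 acetylcholine at 143 s and EC80 at 268 s.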
Compound,remaining activity at 30 µM,IC50,Human M4 Emin
"CN1Cc2cc(-c3cc(C(F)(F)F)c(N[C@H]4C[C@@H]5CN(CC6CCOCC6)C[C@@H]5C4)nn3)ccc2C1=O [Example 86, 2-methyl-5-(6-(((3aR,5s,6aS)-2-((tetrahydro-2H-pyran-4-yl)methyl)octahydro-cyclopenta[c]pyrrol-5-yl)amino)-5-(trifluoro-methyl)pyridazin-3-yl)isoindolin-1-one]",4%,200 nM,
"FC(F)(F)c1cc(-c2cccnc2)nnc1N[C@H]1C[C@@H]2CN(CC3CCOCC3)C[C@@H]2C1 [Example 68, (3aR,5s,6aS)-N-(6-(pyridin-3-yl)-4-(trifluoro-methyl)pyridazin-3-yl)-2-((tetrahydro-2H-pyran-4-yl)methyl)octahydro-cyclopenta[c]pyrrol-5-amine]",3%,161 nM,
"Cn1cc2cc(-c3cc(C#N)c(N[C@H]4C[C@@H]5CN(CC6CCCOC6)C[C@@H]5C4)nn3)ccc2n1 (single isomer, unassigned) [Example 159]",,11.5 nM,10%
"COc1ccc(-c2cc(C(F)(F)F)c(N[C@H]3C[C@@H]4CN(CC5CCOCC5)C[C@@H]4C3)nn2)c(C)c1 [Example 77, (3aR,5s,6aS)-N-(6-(4-methoxy-2-methylphenyl)-4-(trifluoromethyl)pyridazin-3-yl)-2-((tetrahydro-2H-pyran-4-yl)methyl)octahydro-cyclopenta[c]pyrrol-5-amine]",3%,38 nM,
"[2H]C([2H])(C1CCOCC1)N1C[C@H]2C[C@H](Nc3nnc(-c4cc(F)ccc4F)cc3C(F)(F)F)C[C@H]2C1 [Example 50, (3aR,5s,6aS)-N-(6-(2,5-difluorophenyl)-4-(trifluoromethyl)pyridazin-3-yl)-2-((tetrahydro-2H-pyran-4-yl)methyl-d2)octahydro-cyclopenta[c]pyrrol-5-amine]",3%,144 nM,
"N#Cc1cc(-c2cc(F)ccc2Cl)nnc1N[C@H]1C[C@@H]2CN(CC3CCOCC3)C[C@@H]2C1 [Example 145, 6-(2-chloro-5-fluorophenyl)-3-(((3aR,5s,6aS)-2-((tetrahydro-2H-pyran-4-yl)methyl)octahydro-cyclopenta[c]pyrrol-5-yl)amino)pyridazine-4-carbonitrile]",3%,1.4 nM,
"Fc1ccc(F)c(-c2cc(C(F)(F)F)c(N[C@H]3C[C@@H]4CN(C[C@@H]5COCCO5)C[C@@H]4C3)nn2)c1 [Example 69, (3aR,5s,6aS)-2-(((R)-1,4-dioxan-2-yl)methyl)-N-(6-(2,5-difluorophenyl)-4-(trifluoromethyl)pyridazin-3-yl)octahydro-cyclopenta[c]pyrrol-5-amine]",3%,242 nM,
"Cn1cc2cc(-c3cc(C#N)c(N[C@H]4C[C@@H]5CN(C[C@H]6COCCO6)C[C@@H]5C4)nn3)ccc2n1 [Example 156, 3-(((3aR,5s,6aS)-2-(((S)-1,4-dioxan-2-yl)methyl)octahydro-cyclopenta[c]pyrrol-5-yl)amino)-6-(2-methyl-2H-indazol-5-yl)pyridazine-4-carbonitrile]",12%,10.1 nM,
"[2H]C([2H])(C1CCOCC1)N1C[C@H]2C[C@H](Nc3nnc(-c4ccc(OC)cc4C)cc3C(F)(F)F)C[C@H]2C1 [Example 122, (3aR,5s,6aS)-N-(6-(4-methoxy-2-methylphenyl)-4-(trifluoromethyl)pyridazin-3-yl)-2-((tetrahydro-2H-pyran-4-yl)methyl-d2)octahydro-cyclopenta[c]pyrrol-5-amine]",3%,33.2 nM,
"Fc1ccc(-c2cc(C(F)(F)F)c(N[C@H]3C[C@@H]4CN(CC5CCOCC5)C[C@@H]4C3)nn2)c(F)c1 [Example 82, (3aR,5s,6aS)-N-(6-(2,4-difluorophenyl)-4-(trifluoro-methyl)pyridazin-3-yl)-2-((tetrahydro-2H-pyran-4-yl)methyl)octahydro-cyclopenta[c]pyrrol-5-amine]",3%,286 nM,
"FC(F)(F)c1cc(N2CCOCC2)nnc1N[C@H]1C[C@@H]2CN(CC3CCOCC3)C[C@@H]2C1 [Example 143, (3aR,5s,6aS)-N-(6-morpholino-4-(trifluoromethyl)pyridazin-3-yl)-2-((tetrahydro-2H-pyran-4-yl)methyl)octahydro-cyclopenta[c]pyrrol-5-amine]",2%,35.1 nM,
"Cc1ccc(F)cc1-c1cc(C#N)c(N[C@H]2C[C@@H]3CN(C[C@H]4CC5CCC4O5)C[C@@H]3C2)nn1 (stereo partly drawn) [Example 148, 3-(((3aR,5s,6aS)-2-(((2R)-7-oxabicyclo[2.2.1]heptan-2-yl)methyl)octahydro-cyclopenta[c]pyrrol-5-yl)amino)-6-(5-fluoro-2-methylphenyl)pyridazine-4-carbonitrile]",2%,1.1 nM,
"Cc1ccc(F)cc1-c1cc(C(F)(F)F)c(N[C@H]2C[C@@H]3CN(CC4CCCCO4)C[C@@H]3C2)nn1 (single isomer, unassigned) [Example 119]",,14 nM,3%
"Cc1ccc(F)cc1-c1cc(C(F)(F)F)c(N[C@H]2C[C@@H]3CN(CC4COCCO4)C[C@@H]3C2)nn1 (stereo partly drawn) [Example 19, (3aR,5s,6aS)-2-((1,4-dioxan-2-yl)methyl)-N-(6-(5-fluoro-2-methylphenyl)-4-(trifluoromethyl)pyridazin-3-yl)octahydro-cyclopenta[c]pyrrol-5-amine]",2%,4.5 nM,
"CC(C)(C)CCN1C[C@H]2C[C@H](Nc3ncc(-c4cc(F)ccc4Cl)cn3)C[C@H]2C1 [Example 15, (3aR,5s,6aS)-N-(5-(2-chloro-5-fluorophenyl)pyrimidin-2-yl)-2-(3,3-dimethylbutyl)octahydro-cyclopenta[c]pyrrol-5-amine]",3%,3330 nM,

# Further compounds by falling IC50, results first:
remaining activity at 30 µM,IC50,Human M4 Emin,Compound
3%,207 nM,,"Fc1ccc(F)c(-c2cc(C(F)(F)F)c(N[C@H]3C[C@@H]4CN(CC5CCOCC5)C[C@@H]4C3)nn2)c1 [Example 38, (3aR,5s,6aS)-N-(6-(2,5-difluorophenyl)-4-(trifluoromethyl)pyridazin-3-yl)-2-((tetrahydro-2H-pyran-4-yl)methyl)octahydro-cyclopenta[c]pyrrol-5-amine]"
3%,170 nM,,"COc1c(F)cc(-c2cc(C(F)(F)F)c(N[C@H]3C[C@@H]4CN(CC5CCOCC5)C[C@@H]4C3)nn2)cc1F [Example 80, (3aR,5s,6aS)-N-(6-(3,5-difluoro-4-methoxyphenyl)-4-(trifluoromethyl)pyridazin-3-yl)-2-((tetrahydro-2H-pyran-4-yl)methyl)octahydro-cyclopenta[c]pyrrol-5-amine]"
6%,162 nM,,"Cn1cc2cc(-c3cc(C(F)(F)F)c(N[C@H]4C[C@@H]5CN(C[C@@H]6CCOC6)C[C@@H]5C4)nn3)ccc2n1 [Example 32, (3aR,5s,6aS)-N-(6-(2-methyl-2H-indazol-5-yl)-4-(trifluoro-methyl)pyridazin-3-yl)-2-(((S)-tetrahydrofuran-3-yl)methyl)octahydro-cyclopenta[c]pyrrol-5-amine]"
3%,67.7 nM,,"Cc1ccc(-c2cc(C(F)(F)F)c(N[C@H]3C[C@@H]4CN(CC5CCOCC5)C[C@@H]4C3)nn2)c(C)c1 [Example 59, (3aR,5s,6aS)-N-(6-(2,4-dimethylphenyl)-4-(trifluoromethyl)pyridazin-3-yl)-2-((tetrahydro-2H-pyran-4-yl)methyl)octahydro-cyclopenta[c]pyrrol-5-amine]"
3%,29.8 nM,,"[2H]C([2H])(C1CCOCC1)N1C[C@H]2C[C@H](Nc3nnc(-c4ccc5nn(C)cc5c4)cc3C(F)(F)F)C[C@H]2C1 [Example 18, (3aR,5s,6aS)-N-(6-(2-methyl-2H-indazol-5-yl)-4-(trifluoro-methyl)pyridazin-3-yl)-2-((tetrahydro-2H-pyran-4-yl)methyl-d2)octahydro-cyclopenta[c]pyrrol-5-amine]"
2%,20.6 nM,,"C[C@@H]1CCCN(c2cc(C(F)(F)F)c(N[C@H]3C[C@@H]4CN(CC5CCOCC5)C[C@@H]4C3)nn2)C1 [Example 136, (3aR,5s,6aS)-N-(6-((R)-3-methylpiperidin-1-yl)-4-(trifluoromethyl)pyridazin-3-yl)-2-((tetrahydro-2H-pyran-4-yl)methyl)octahydro-cyclopenta[c]pyrrol-5-amine]"
3%,7 nM,,"Cc1ccc(F)cc1-c1cc(C(F)(F)F)c(N[C@H]2C[C@@H]3CN(C[C@@H]4CC5CCC4O5)C[C@@H]3C2)nn1 (stereo partly drawn) [Example 24, (3aR,5s,6aS)-2-(((2S)-7-oxabicyclo[2.2.1]heptan-2-yl)methyl)-N-(6-(5-fluoro-2-methylphenyl)-4-(trifluoromethyl)pyridazin-3-yl)octahydro-cyclopenta[c]pyrrol-5-amine]"
